Data on 15 compounds can be found in patent US9732119B2, “Immunomodulators” (BRISTOL-MYERS SQUIBB COMPANY, priority 2014, dated 2017).

This assay has as its target T1, PD-1-Ig binding to PD-L1-TVMV-His (PD-L1-His) (Homo sapiens, UniProt Q9NZQ7).
T1 construct: hPDL1(19-239)-TVMV-His; made in house; host or cells: HEK293T cells
Put plainly: PD-1/PD-L1 Homogenous Time-Resolved Fluorescence (HTRF) binding assay. The note with it: PD-1-Ig (20 nM) / PD-L1-His (10 nM). The gist of the method:
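In dPBS with 0.1% BSA and 0.05% Tween-20, inhibitors were preincubated 15 min with 10 nM PD-L1-His before 20 nM PD-1-Ig was added for another 15 min. Binding read by time-resolved FRET between Eu-cryptate anti-Ig (1 nM) and APC anti-His (20 nM).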
In general terms: Time-resolved FRET reads energy transfer from a long-lived donor to a nearby acceptor.

SMILES strings stand for the structures. Positions of bridges follow the written chain, without caps; N, C: chain ends. Non-standard residues stand in square brackets, D forms with d. Residues, ends and D or L forms follow the SMILES beside them. Trp(1-CH2COOH) = N[C@@H](Cc1cn(CC(=O)O)c2ccccc12)C(=O)O; Phe(4-Cl) = N[C@@H](Cc1ccc(Cl)cc1)C(=O)O; Phe(4-F) = N[C@@H](Cc1ccc(F)cc1)C(=O)O; Phe(4-Me) = Cc1ccc(C[C@H](N)C(=O)O)cc1; Hyp = O=C(O)[C@@H]1C[C@@H](O)CN1; NMeNle = CCCC[C@H](NC)C(=O)O; Pip = O=C(O)[C@@H]1CCCCN1; Orn = NCCC[C@H](N)C(=O)O; Dab = NCC[C@H](N)C(=O)O; Dap = NC[C@H](N)C(=O)O; Ava = NCCCCC(=O)O

T1 sequence (Q9NZQ7 with tags, fused parts or gaps): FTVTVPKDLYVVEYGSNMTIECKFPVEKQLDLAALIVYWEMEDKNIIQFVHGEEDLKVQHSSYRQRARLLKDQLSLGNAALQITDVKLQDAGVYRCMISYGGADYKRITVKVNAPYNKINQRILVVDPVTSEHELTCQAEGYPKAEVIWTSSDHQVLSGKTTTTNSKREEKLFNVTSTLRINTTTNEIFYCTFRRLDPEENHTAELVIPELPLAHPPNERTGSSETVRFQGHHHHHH

For `CCCC[C@H]1C(=O)N(C)[C@@H](CCCC)C(=O)N[C@@H](CC(C)C)C(=O)NCCCCC(=O)N[C@@H](Cc2ccc(OC)cc2)C(=O)N2CCCC[C@H]2C(=O)N[C@@H](CC(N)=O)C(=O)N2CCC[C@H]2C(=O)N[C@@H](CN)C(=O)N[C@@H](CC(C)C)C(=O)N2C[C@H](O)C[C@H]2C(=O)N[C@@H](Cc2c[nH]c3ccccc23)C(=O)N[C@@H](CCN)C(=O)N[C@@H](Cc2cn(CC(=O)O)c3ccccc23)C(=O)N1C` [Example 10535] (cyclo([Ava]Y(Me)[Pip]NP[Dap]L[Hyp]W[Dab][Trp(1-CH2COOH)][NMeNle][NMeNle]L)), where the note is “range classes”, the IC50 was 1 to 9.9 nM.

On to `CCCC[C@H]1C(=O)N(C)[C@@H](CCCC)C(=O)N[C@@H](CC(C)C)C(=O)NCCCCC(=O)N[C@@H](Cc2ccc(F)cc2)C(=O)N2CCCC[C@H]2C(=O)N[C@@H](CC(N)=O)C(=O)N2CCC[C@H]2C(=O)N[C@@H](CN)C(=O)N[C@@H](CC(C)C)C(=O)N2C[C@H](O)C[C@H]2C(=O)N[C@@H](Cc2c[nH]c3ccccc23)C(=O)N[C@@H](CCN)C(=O)N[C@@H](Cc2cn(CC(=O)O)c3ccccc23)C(=O)N1C` [Example 10536] (cyclo([Ava][Phe(4-F)][Pip]NP[Dap]L[Hyp]W[Dab][Trp(1-CH2COOH)][NMeNle][NMeNle]L)), for which, under “range classes”, the IC50 is 1 to 9.9 nM.

For the compound `CCCC[C@H]1C(=O)N(C)[C@@H](CCCC)C(=O)N[C@@H](CC(C)C)C(=O)NCCCCC(=O)N[C@@H](Cc2ccc(Cl)cc2)C(=O)N2CCCC[C@H]2C(=O)N[C@@H](CC(N)=O)C(=O)N2CCC[C@H]2C(=O)N[C@@H](CN)C(=O)N[C@@H](CC(C)C)C(=O)N2C[C@H](O)C[C@H]2C(=O)N[C@@H](Cc2c[nH]c3ccccc23)C(=O)N[C@@H](CCN)C(=O)N[C@@H](Cc2cn(CC(=O)O)c3ccccc23)C(=O)N1C` [Example 10537] (cyclo([Ava][Phe(4-Cl)][Pip]NP[Dap]L[Hyp]W[Dab][Trp(1-CH2COOH)][NMeNle][NMeNle]L)), the concentration for half-maximal inhibition (IC50) (range classes) was in the range of 10 to 99 nM.

`CCCC[C@H]1C(=O)N(C)[C@@H](CCCC)C(=O)N[C@@H](CC(C)C)C(=O)N[C@H](C(N)=O)COCC(=O)N[C@@H](Cc2ccc(C)cc2)C(=O)N2CCCC[C@H]2C(=O)N[C@@H](CC(N)=O)C(=O)N2CCC[C@H]2C(=O)N[C@@H](CN)C(=O)N[C@@H](CCC(=O)O)C(=O)N2C[C@H](O)C[C@H]2C(=O)N[C@@H](Cc2c[nH]c3ccccc23)C(=O)N[C@@H](CCN)C(=O)N[C@@H](Cc2cn(CC(=O)O)c3ccccc23)C(=O)N1C` [Example 10538]: the IC50 (range classes) was in the range of 1 to 9.9 nM.

In the case of `CCCC[C@H]1C(=O)N(C)[C@@H](CCCC)C(=O)N[C@@H](CC(C)C)C(=O)NCCCCC(=O)N[C@@H](Cc2ccc(C)cc2)C(=O)N2CCCC[C@H]2C(=O)N[C@@H](CC(N)=O)C(=O)N2CCC[C@H]2C(=O)N[C@@H](CN)C(=O)N[C@@H](CC(C)C)C(=O)N2C[C@H](O)C[C@H]2C(=O)N[C@@H](Cc2c[nH]c3ccccc23)C(=O)N[C@@H](CCN)C(=O)N[C@@H](Cc2cn(CC(=O)O)c3ccccc23)C(=O)N1C` [Example 10540] (cyclo([Ava][Phe(4-Me)][Pip]NP[Dap]L[Hyp]W[Dab][Trp(1-CH2COOH)][NMeNle][NMeNle]L)), for the setting “range classes”, the IC50 was in the range of 1 to 9.9 nM.

The compound `CCCC[C@H]1C(=O)N(C)[C@@H](CCCC)C(=O)N[C@@H](CC(C)C)C(=O)NCCCCC(=O)N[C@@H](Cc2ccc(C)cc2)C(=O)N2CCCC[C@H]2C(=O)N[C@@H](CC(N)=O)C(=O)N2CCC[C@H]2C(=O)N[C@@H](CN)C(=O)N[C@@H](CCC(=O)O)C(=O)N2C[C@H](O)C[C@H]2C(=O)N[C@@H](Cc2c[nH]c3ccccc23)C(=O)N[C@@H](CCN)C(=O)N[C@@H](Cc2cn(CC(=O)O)c3ccccc23)C(=O)N1C` [Example 10541] (cyclo([Ava][Phe(4-Me)][Pip]NP[Dap]E[Hyp]W[Dab][Trp(1-CH2COOH)][NMeNle][NMeNle]L)) showed an IC50 (range classes) of 1 to 9.9 nM.

Turning to `CCCC[C@H]1C(=O)N(C)[C@@H](CCCC)C(=O)N[C@@H](CC(C)C)C(=O)NCCCCC(=O)N[C@@H](Cc2ccc(OC)cc2)C(=O)N2CCCC[C@H]2C(=O)N[C@@H](CC(N)=O)C(=O)N2CCC[C@H]2C(=O)N[C@@H](CN)C(=O)N[C@@H](CCC(=O)O)C(=O)N2C[C@H](O)C[C@H]2C(=O)N[C@@H](Cc2c[nH]c3ccccc23)C(=O)N[C@@H](CCN)C(=O)N[C@@H](Cc2cn(CC(=O)O)c3ccccc23)C(=O)N1C` [Example 10542] (cyclo([Ava]Y(Me)[Pip]NP[Dap]E[Hyp]W[Dab][Trp(1-CH2COOH)][NMeNle][NMeNle]L)), the IC50 (range classes) was 1 to 9.9 nM.

`CCCC[C@H]1C(=O)N(C)[C@@H](CCCC)C(=O)N[C@@H](CC(C)C)C(=O)NCCCCC(=O)N[C@@H](Cc2ccc(F)cc2)C(=O)N2CCCC[C@H]2C(=O)N[C@@H](CC(N)=O)C(=O)N2CCC[C@H]2C(=O)N[C@@H](CN)C(=O)N[C@@H](CCC(=O)O)C(=O)N2C[C@H](O)C[C@H]2C(=O)N[C@@H](Cc2c[nH]c3ccccc23)C(=O)N[C@@H](CCN)C(=O)N[C@@H](Cc2cn(CC(=O)O)c3ccccc23)C(=O)N1C` [Example 10543] (cyclo([Ava][Phe(4-F)][Pip]NP[Dap]E[Hyp]W[Dab][Trp(1-CH2COOH)][NMeNle][NMeNle]L)) yielded an IC50 (range classes) of 1 to 9.9 nM.

Where the note is “range classes”, `CCCC[C@H]1C(=O)N(C)[C@@H](CCCC)C(=O)N[C@@H](CC(C)C)C(=O)NCCCCC(=O)N[C@@H](Cc2ccc(Cl)cc2)C(=O)N2CCCC[C@H]2C(=O)N[C@@H](CC(N)=O)C(=O)N2CCC[C@H]2C(=O)N[C@@H](CN)C(=O)N[C@@H](CCC(=O)O)C(=O)N2C[C@H](O)C[C@H]2C(=O)N[C@@H](Cc2c[nH]c3ccccc23)C(=O)N[C@@H](CCN)C(=O)N[C@@H](Cc2cn(CC(=O)O)c3ccccc23)C(=O)N1C` [Example 10544] (cyclo([Ava][Phe(4-Cl)][Pip]NP[Dap]E[Hyp]W[Dab][Trp(1-CH2COOH)][NMeNle][NMeNle]L)) gave an IC50 of 1 to 9.9 nM.

On to `CCCC[C@H]1C(=O)N(C)[C@@H](CCCC)C(=O)N[C@@H](CC(C)C)C(=O)NCCC[C@H](N)C(=O)N[C@@H](Cc2ccc(Cl)cc2)C(=O)N2CCCC[C@H]2C(=O)N[C@@H](CC(N)=O)C(=O)N2CCC[C@H]2C(=O)N[C@@H](CN)C(=O)N[C@@H](CC(C)C)C(=O)N2C[C@H](O)C[C@H]2C(=O)N[C@@H](Cc2c[nH]c3ccccc23)C(=O)N[C@@H](CCN)C(=O)N[C@@H](Cc2cn(CC(=O)O)c3ccccc23)C(=O)N1C` [Example 10545] (H-[Orn][Phe(4-Cl)][Pip]NP[Dap]L[Hyp]W[Dab][Trp(1-CH2COOH)][NMeNle][NMeNle]L; lactam 1-C), for which, under “numeric values”, the IC50 was 8 nM.

In the case of `CCCC[C@H]1C(=O)N(C)[C@@H](CCCC)C(=O)N[C@@H](CC(C)C)C(=O)NCCC[C@H](N)C(=O)N[C@@H](Cc2ccc(Cl)cc2)C(=O)N2CCCC[C@H]2C(=O)N[C@@H](CC(N)=O)C(=O)N2CCC[C@H]2C(=O)N[C@@H](CN)C(=O)N[C@@H](CCC(=O)O)C(=O)N2C[C@H](O)C[C@H]2C(=O)N[C@@H](Cc2c[nH]c3ccccc23)C(=O)N[C@@H](CCN)C(=O)N[C@@H](Cc2cn(CC(=O)O)c3ccccc23)C(=O)N1C` [Example 10546] (H-[Orn][Phe(4-Cl)][Pip]NP[Dap]E[Hyp]W[Dab][Trp(1-CH2COOH)][NMeNle][NMeNle]L; lactam 1-C), for the setting “range classes”, the IC50 fell in the range of 10 to 99 nM.

For `CCCC[C@H]1C(=O)N(C)[C@@H](CCCC)C(=O)N[C@@H](CC(C)C)C(=O)NCCC[C@H](N)C(=O)N[C@@H](Cc2ccc(C)cc2)C(=O)N2CCCC[C@H]2C(=O)N[C@@H](CC(N)=O)C(=O)N2CCC[C@H]2C(=O)N[C@@H](CN)C(=O)N[C@@H](CCC(=O)O)C(=O)N2C[C@H](O)C[C@H]2C(=O)N[C@@H](Cc2c[nH]c3ccccc23)C(=O)N[C@@H](CCN)C(=O)N[C@@H](Cc2cn(CC(=O)O)c3ccccc23)C(=O)N1C` [Example 10547] (H-[Orn][Phe(4-Me)][Pip]NP[Dap]E[Hyp]W[Dab][Trp(1-CH2COOH)][NMeNle][NMeNle]L; lactam 1-C), the IC50 (range classes) was 10 to 99 nM.

Compound `CCCC[C@H]1C(=O)N(C)[C@@H](CCCC)C(=O)N[C@@H](CC(C)C)C(=O)NCCC[C@H](N)C(=O)N[C@@H](Cc2ccc(F)cc2)C(=O)N2CCCC[C@H]2C(=O)N[C@@H](CC(N)=O)C(=O)N2CCC[C@H]2C(=O)N[C@@H](CN)C(=O)N[C@@H](CCC(=O)O)C(=O)N2C[C@H](O)C[C@H]2C(=O)N[C@@H](Cc2c[nH]c3ccccc23)C(=O)N[C@@H](CCN)C(=O)N[C@@H](Cc2cn(CC(=O)O)c3ccccc23)C(=O)N1C` [Example 10548] (H-[Orn][Phe(4-F)][Pip]NP[Dap]E[Hyp]W[Dab][Trp(1-CH2COOH)][NMeNle][NMeNle]L; lactam 1-C) yielded an IC50 (range classes) of 10 to 99 nM.

Consider `CCCC[C@H]1C(=O)N(C)[C@@H](CCCC)C(=O)N[C@@H](CC(C)C)C(=O)NCCC[C@H](N)C(=O)N[C@@H](Cc2ccc(O)cc2)C(=O)N2CCCC[C@H]2C(=O)N[C@@H](CC(N)=O)C(=O)N2CCC[C@H]2C(=O)N[C@@H](CN)C(=O)N[C@@H](CCC(=O)O)C(=O)N2C[C@H](O)C[C@H]2C(=O)N[C@@H](Cc2c[nH]c3ccccc23)C(=O)N[C@@H](CCN)C(=O)N[C@@H](Cc2cn(CC(=O)O)c3ccccc23)C(=O)N1C` [Example 10549] (H-[Orn]Y[Pip]NP[Dap]E[Hyp]W[Dab][Trp(1-CH2COOH)][NMeNle][NMeNle]L; lactam 1-C), for which the IC50 (range classes) was in the range of 10 to 99 nM.

Consider `CCCC[C@H]1C(=O)N(C)[C@@H](CCCC)C(=O)N[C@@H](CC(C)C)C(=O)NCCC[C@H](N)C(=O)N[C@@H](Cc2ccc(F)cc2)C(=O)N2CCCC[C@H]2C(=O)N[C@@H](CC(N)=O)C(=O)N2CCC[C@H]2C(=O)N[C@@H](CN)C(=O)N[C@@H](CC(C)C)C(=O)N2C[C@H](O)C[C@H]2C(=O)N[C@@H](Cc2c[nH]c3ccccc23)C(=O)N[C@@H](CCN)C(=O)N[C@@H](Cc2cn(CC(=O)O)c3ccccc23)C(=O)N1C` [Example 10550] (H-[Orn][Phe(4-F)][Pip]NP[Dap]L[Hyp]W[Dab][Trp(1-CH2COOH)][NMeNle][NMeNle]L; lactam 1-C), for which the IC50 (range classes) lay in the range of 10 to 99 nM.

By IC50 is commonly meant the point on the concentration scale where inhibition reaches its midpoint. A higher IC50 goes with weaker potency.
